In patent EP0609518A1, “Optically active aminopyridine derivative and use thereof” (THE GREEN CROSS CORPORATION, priority 1992, dated 1994) one finds vasodepressor action and death case data, which are given here for one molecule.

The subject of data set [1] is male spontaneously hypertensive rat. Kind of data set: Antihypertensive action (systolic pressure by tail-cuff method). Format: in vivo. Conditions: 3 mg/kg p.o., dissolved in brine, at 1 hour from the oral administration. The protocol: The compound (hydrochloride) of the present invention obtained in Example 1 was dissolved in brine, and forcibly administered (p.o.) to male spontaneously hypertensive rat at 3 mg/kg. The systolic pressure was measured with a programmable sphygmonanometer (PS-200A, manufactured by Riken Kaihatsu, Japan) by tail-cuff method [Ohkubo H et al. Proc. Natl. Acad. Sci. USA, 87, 5153-5157 (1990)].

The next data set relates to rat. Put plainly: Toxicity by single administration to rat. Conditions: single administration of 450 mg/kg to rat. The format is in vivo. The text has this: Toxicity by single administration to rat

Turning to `Cl.N#CN=C(Nc1ccc(N)nc1)N[C@@H]1C[C@@H]2CC[C@H]1C2` [hydrochloride of (+)-N-(6-amino-3-pyridyl)-N''-cyano-N'-[(1S] [hydrochloride of (+)-N-(6-amino-3-pyridyl)-N''-cyano-N'-[(1S,2R,4R)-2-norbornyl]guanidine], the vasodepressor action in data set [1] was determined as 33%. The death case result in the data set on rat is “did not result in a death case”.
